Laboratory results reported in patent US12599672B2, “KRAS proteolysis targeting chimeras” (PAQ Therapeutics Inc., priority 2023, dated 2026).

Legend:
[1] = biological target: T1, KRAS G12V (Homo sapiens, UniProt P01116, G12V); assay: KRAS G12V HiBit assay; format: cell-based; conditions: SW620-KRAS (G12V)-HiBit-KI cells, compound treatment for 24 hours, class symbols
T1 construct: SW620-KRAS (G12V)-HiBit-KI cell (Pharmaron); host or cells: SW620-KRAS (G12V)-HiBit-KI cells (HiBiT knock-in at the endogenous KRAS locus)
Method in brief: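 Luminescence from lytic Nano-Glo HiBiT detection with LgBiT read KRAS G12V levels after 24 h compound exposure. Dilutions were 10-point, 3-fold, from a 0.3 mM DMSO stock. Degradation activity was normalised to cells given 0.1% DMSO alone.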

[2] = biological target: T2, KRAS G12D (Homo sapiens, UniProt P01116, G12D); assay: KRAS G12D HiBit assay; format: cell-based; conditions: AsPc-1-KRAS (G12D)-HiBit-KI cell, compound treatment for 24 hours; for DC50: absolute DC50
T2 construct: AsPc-1-KRAS (G12D)-HiBit-KI cell (Pharmaron); host or cells: AsPc-1-KRAS (G12D)-HiBit-KI cells (HiBiT knock-in at the endogenous KRAS locus)
Method in brief: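 HiBiT luminescence, detected by adding lytic buffer, substrate and LgBiT protein, served as the KRAS G12D read-out. Compounds, serially diluted 3-fold over 10 points from 0.3 mM DMSO stock, were on cells for 24 h; percent inhibition normalized to cells given 0.1% DMSO only.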

[3] = numeric bounds given in place of class symbols

T2 sequence (P01116 1-188 isoform P01116-2 G12D): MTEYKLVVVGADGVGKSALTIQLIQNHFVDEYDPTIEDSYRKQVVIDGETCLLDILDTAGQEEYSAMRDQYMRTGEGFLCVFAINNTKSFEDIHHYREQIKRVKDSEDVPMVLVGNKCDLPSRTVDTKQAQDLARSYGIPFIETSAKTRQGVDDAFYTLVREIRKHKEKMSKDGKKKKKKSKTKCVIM
T1 sequence (P01116 1-188 isoform P01116-2 G12V): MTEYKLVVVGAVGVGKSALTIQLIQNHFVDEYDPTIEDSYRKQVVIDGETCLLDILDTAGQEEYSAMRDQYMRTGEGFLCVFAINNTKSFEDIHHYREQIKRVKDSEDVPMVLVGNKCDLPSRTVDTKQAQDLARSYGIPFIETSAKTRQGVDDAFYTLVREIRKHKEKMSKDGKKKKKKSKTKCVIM

Row | SMILES | DC50 [1] [nM] | DC50 [2, 3] [nM] | DC50 ([2]; class symbols) [nM] | Dmax ([2]; class symbols) [%]
1 | CCc1c(F)ccc2cc(O)cc(-c3ccc4c(N5CCC[C@@](C)(O)C5)nc(OC[C@@]56CCCN5[C@@H](COC(=O)N5CCC(CN7CCC(c8ccc9c(c8)n(C)c(=O)n9C8CCC(=O)NC8=O)CC7)CC5)CC6)nc4c3F)c12 (stereo partly drawn) [Compound 319, ((3R,7aS)-7a-(((7-(8-ethyl-7-fluoro-3-hydroxynaphthalen-1-yl)-8-fluoro-4-((R)-3-hydroxy-3-methylpiperidin-1-yl)quinazolin-2-yl)oxy)methyl)hexahydro-1H-pyrrolizin-3-yl)methyl 4-((4-(1-(2,6-dioxopiperidin-3-yl)-3-methyl-2-oxo-2,3-dihydro-1H-benzo[d]imidazol-5-yl)piperidin-1-yl)methyl)piperidine-1-carboxylate] | > 100 | > 100 | – | –
2 | CCc1c(F)ccc2cc(O)cc(-c3ncc4c(N5CCC[C@H](O)C5)nc(OC[C@@]56CCCN5[C@H](COC(=O)N5CCC7(CC5)CC(N5CCC(c8ccc9c(c8)n(C)c(=O)n9C8CCC(=O)NC8=O)CC5)C7)CC6)nc4c3F)c12 (stereo partly drawn) [Compound 354, ((3S,7aS)-7a-(((7-(8-ethyl-7-fluoro-3-hydroxynaphthalen-1-yl)-8-fluoro-4-((S)-3-hydroxypiperidin-1-yl)pyrido[4,3-d]pyrimidin-2-yl)oxy)methyl)hexahydro-1H-pyrrolizin-3-yl)methyl 2-(4-(1-(2,6-dioxopiperidin-3-yl)-3-methyl-2-oxo-2,3-dihydro-1H-benzo[d]imidazol-5-yl)piperidin-1-yl)-7-azaspiro[3.5]nonane-7-carboxylate] | < 10 | – | < 100 | –
3 | C#Cc1c(F)ccc2cc(O)cc(-c3ncc4c(N5CCC[C@@](C)(O)C5)nc(OCC5(CN6CCN(CCN7CCN(c8ccc9c(c8)n(C)c(=O)n9C8CCC(=O)NC8=O)CC7)CC6)CC5)nc4c3F)c12 (some centres unmarked) [Compound 28] | > 100 | – | < 100 | –
4 | CCc1c(F)ccc2cc(O)cc(-c3ncc4c(N5CCC[C@@H]5CO)nc(OC[C@@]56CCCN5[C@H](COC(=O)N5CCC7(CC5)CC(N5CCC(c8ccc9c(c8)n(C)c(=O)n9C8CCC(=O)NC8=O)CC5)C7)CC6)nc4c3F)c12 (stereo partly drawn) [Compound 352, ((3S,7aS)-7a-(((7-(8-ethyl-7-fluoro-3-hydroxynaphthalen-1-yl)-8-fluoro-4-((R)-2-(hydroxymethyl)pyrrolidin-1-yl)pyrido[4,3-d]pyrimidin-2-yl)oxy)methyl)hexahydro-1H-pyrrolizin-3-yl)methyl 2-(4-(1-(2,6-dioxopiperidin-3-yl)-3-methyl-2-oxo-2,3-dihydro-1H-benzo[d]imidazol-5-yl)piperidin-1-yl)-7-azaspiro[3.5]nonane-7-carboxylate] | < 10 | – | < 100 | –
5 | C#Cc1c(F)ccc2cccc(-c3ncc4c(N5CCC[C@@](C)(O)C5)nc(OCC5(CN6CCC7(CC6)CC(N6CCN(c8cccc9c8n(C)c(=O)n9C8CCC(=O)NC8=O)CC6)C7)CC5)nc4c3F)c12 (some centres unmarked) [Compound 70] | > 100 | – | > 300 | –
6 | C#Cc1c(F)ccc2cc(O)cc(-c3ncc4c(N5CCC[C@@](C)(O)C5)nc(OC[C@@]56CCCN5[C@H](COC(=O)N5CCC(CN7CCC(c8ccc9c(c8)n(C8CCC(=O)NC8=O)c(=O)n9C)CC7)CC5)CC6)nc4c3F)c12 (some centres unmarked) [Compound 135] | > 100 | – | > 300 | –
7 | CCc1c(F)ccc2cc(O)cc(-c3ncc4c(N5CCC[C@@](C)(O)C5)nc(OC[C@@]56CCCN5[C@H](COC(=O)N5CCC(N7CC8(CCC(c9ccc%10c(c9)n(C)c(=O)n%10C9CCC(=O)NC9=O)CC8)C7)CC5)CC6)nc4c3F)c12 (stereo partly drawn) [Compound 363, ((3S,7aS)-7a-(((7-(8-ethyl-7-fluoro-3-hydroxynaphthalen-1-yl)-8-fluoro-4-((R)-3-hydroxy-3-methylpiperidin-1-yl)pyrido[4,3-d]pyrimidin-2-yl)oxy)methyl)hexahydro-1H-pyrrolizin-3-yl)methyl 4-(7-(1-(2,6-dioxopiperidin-3-yl)-3-methyl-2-oxo-2,3-dihydro-1H-benzo[d]imidazol-5-yl)-2-azaspiro[3.5]nonan-2-yl)piperidine-1-carboxylate] | < 10 | – | < 100 | –
8 | C#Cc1cccc2cc(O)cc(-c3ncc4c(N5CCC[C@@](C)(O)C5)nc(OC[C@@]56CCCN5[C@H](COC(=O)N5CCC(CN7CCC(c8ccc9c(c8)n(C)c(=O)n9C8CCC(=O)NC8=O)CC7)CC5)CC6)nc4c3F)c12 (some centres unmarked) [Compound 144] | < 10 | – | < 100 | –
9 | C#Cc1c(F)ccc2cc(O)cc(-c3ncc4c(N5CCC[C@@](C)(O)C5)nc(OC[C@@]56CCCN5[C@H](COC(=O)N5CCC(CN7CCC(c8cccc9c8n(C)c(=O)n9C8CCC(=O)NC8=O)CC7)CC5)CC6)nc4c3F)c12 (some centres unmarked) [Compound 133] | 10 to 100 | – | < 100 | –
10 | C#Cc1c(F)ccc2cccc(-c3ncc4c(N5CCC[C@@](C)(O)C5)nc(OC[C@@]56CCCN5[C@H](COC(=O)N5CCC(CN7CCC(c8ccc9c(c8)n(C)c(=O)n9C8CCC(=O)NC8=O)CC7)CC5)CC6)nc4c3F)c12 (stereo partly drawn) [Compound 3, [(3S,8S)-8-[[7-(8-Ethynyl-7-fluoro-1-naphthyl)-8-fluoro-4-[(3R)-3-hydroxy-3-methyl-1-piperidyl]pyrido[4,3-d]pyrimidin-2-yl]oxymethyl]-1,2,3,5,6,7-hexahydropyrrolizin-3-yl]methyl 4-[[4-[1-(2,6-dioxo-3-piperidyl)-3-methyl-2-oxo-benzimidazol-5-yl]-1-piperidyl]methyl]piperidine-1-carboxylate] | > 100 | – | < 100 | > 50
11 | CCc1c(F)ccc2cc(O)cc(-c3ncc4c(N5CCC(O)CC5)nc(OC[C@@]56CCCN5[C@H](COC(=O)N5CCC7(CC5)CC(N5CCC(c8ccc9c(c8)n(C)c(=O)n9C8CCC(=O)NC8=O)CC5)C7)CC6)nc4c3F)c12 (stereo partly drawn) [Compound 358, ((3S,7aS)-7a-(((7-(8-ethyl-7-fluoro-3-hydroxynaphthalen-1-yl)-8-fluoro-4-(4-hydroxypiperidin-1-yl)pyrido[4,3-d]pyrimidin-2-yl)oxy)methyl)hexahydro-1H-pyrrolizin-3-yl)methyl 2-(4-(1-(2,6-dioxopiperidin-3-yl)-3-methyl-2-oxo-2,3-dihydro-1H-benzo[d]imidazol-5-yl)piperidin-1-yl)-7-azaspiro[3.5]nonane-7-carboxylate] | < 10 | – | < 100 | –
12 | CCc1c(F)ccc2cccc(-c3ncc4c(N5CCC[C@@](C)(O)C5)nc(OC[C@@]56CCCN5[C@H](COC(=O)N5CCC(CN7CCC(c8ccc9c(c8)n(C)c(=O)n9C8CCC(=O)NC8=O)CC7)CC5)CC6)nc4c3F)c12 (stereo partly drawn) [Compound 94, [(3S,8S)-8-[[7-(8-ethyl-7-fluoro-1-naphthyl)-8-fluoro-4-[(3R)-3-hydroxy-3-methyl-1-piperidyl]pyrido[4,3-d]pyrimidin-2-yl]oxymethyl]-1,2,3,5,6,7-hexahydropyrrolizin-3-yl]methyl-4-[[4-[1-(2,6-dioxo-3-piperidyl)-3-methyl-2-oxo-benzimidazol-5-yl]-1-piperidyl]methyl]piperidine-1-carboxylate] | > 100 | – | < 100 | > 50
13 | C#Cc1c(F)ccc2cc(O)cc(-c3ncc4c(N5CCC[C@@](C)(O)C5)nc(OCC5(CN6CCC7(CC6)CN(c6ccc8c(c6)n(C)c(=O)n8C6CCC(=O)NC6=O)C7)CC5)nc4c3F)c12 (some centres unmarked) [Compound 33] | > 100 | – | > 300 | –
14 | CCc1c(F)ccc2cc(O)cc(-c3ncc4c(N5CCC[C@@](C)(O)C5)nc(OC[C@@]56CCCN5[C@H](COC(=O)N5CCC(CN7C8CCC7CC(c7ccc9c(c7)n(C)c(=O)n9C7CCC(=O)NC7=O)C8)CC5)CC6)nc4c3F)c12 (stereo partly drawn) [Compound 393, ((3S,7aS)-7a-(((7-(8-ethyl-7-fluoro-3-hydroxynaphthalen-1-yl)-8-fluoro-4-((R)-3-hydroxy-3-methylpiperidin-1-yl)pyrido[4,3-d]pyrimidin-2-yl)oxy)methyl)hexahydro-1H-pyrrolizin-3-yl)methyl 4-((3-(1-(2,6-dioxopiperidin-3-yl)-3-methyl-2-oxo-2,3-dihydro-1H-benzo[d]imidazol-5-yl)-8-azabicyclo[3.2.1]octan-8-yl)methyl)piperidine-1-carboxylate] | 10 to 100 | – | < 100 | –
15 | CCc1c(F)ccc2cc(O)cc(-c3ccc4c(N5CCC[C@@](C)(O)C5)nc(OC[C@]56CCCN5[C@H](COC(=O)N5CCC(CN7CCC(c8ccc9c(c8)n(C)c(=O)n9C8CCC(=O)NC8=O)CC7)CC5)CC6)nc4c3F)c12 (stereo partly drawn) [Compound 318, ((3S,7aR)-7a-(((7-(8-ethyl-7-fluoro-3-hydroxynaphthalen-1-yl)-8-fluoro-4-((R)-3-hydroxy-3-methylpiperidin-1-yl)quinazolin-2-yl)oxy)methyl)hexahydro-1H-pyrrolizin-3-yl)methyl 4-((4-(1-(2,6-dioxopiperidin-3-yl)-3-methyl-2-oxo-2,3-dihydro-1H-benzo[d]imidazol-5-yl)piperidin-1-yl)methyl)piperidine-1-carboxylate] | > 100 | > 100 | – | –
